Test results as given in US9193744B2, “Heterocyclic nuclear hormone receptor modulators” (AbbVie Inc., priority 2012, dated 2015).
Like-named read-outs stand apart in the source and are kept apart here.

Experiments:
[1] = molecular target: T1, Glucocorticoid Receptor (GR) (Homo sapiens, UniProt P04150); assay: GR Fluorescence Polarization Assay (PolarScreen Glucocorticoid Receptor Competitor Assay, Red); settings: fluorescence polarization binding ranges
T1 construct: purchased Invitrogen P2893
T1 sequence (P04150 1-777): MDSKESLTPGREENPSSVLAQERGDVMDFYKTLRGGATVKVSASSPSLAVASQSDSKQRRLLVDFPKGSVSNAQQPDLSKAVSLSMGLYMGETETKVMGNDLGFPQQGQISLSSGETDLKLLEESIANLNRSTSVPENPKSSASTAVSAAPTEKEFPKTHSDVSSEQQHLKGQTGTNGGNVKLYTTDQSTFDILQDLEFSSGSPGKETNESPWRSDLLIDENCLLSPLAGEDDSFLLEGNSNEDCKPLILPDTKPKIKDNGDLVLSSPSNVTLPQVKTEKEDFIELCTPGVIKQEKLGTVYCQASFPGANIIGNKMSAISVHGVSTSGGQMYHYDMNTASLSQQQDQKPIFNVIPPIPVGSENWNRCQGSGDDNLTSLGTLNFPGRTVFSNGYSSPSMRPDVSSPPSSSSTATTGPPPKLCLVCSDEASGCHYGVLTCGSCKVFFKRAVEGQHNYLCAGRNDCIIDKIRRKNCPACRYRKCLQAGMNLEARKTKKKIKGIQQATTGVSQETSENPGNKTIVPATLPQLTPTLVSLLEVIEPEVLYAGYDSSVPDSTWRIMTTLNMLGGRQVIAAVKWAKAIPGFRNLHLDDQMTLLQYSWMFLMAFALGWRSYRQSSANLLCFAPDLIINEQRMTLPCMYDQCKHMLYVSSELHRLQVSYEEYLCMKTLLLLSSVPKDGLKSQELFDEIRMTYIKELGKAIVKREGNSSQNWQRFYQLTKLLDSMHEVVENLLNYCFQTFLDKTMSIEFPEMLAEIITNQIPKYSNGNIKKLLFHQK
Procedure: Fluorescence polarization assays were carried out using the PolarScreen™ Glucocorticoid Receptor Competitor Assay, Red from Invitrogen (P2893). The assay buffer was prepared according to the manufacturer's protocol and used to dilute the fluorescent glucocorticoid and GR. Compounds were prepared and serial diluted 1:4 in DMSO. Compound, fluorescent glucocorticoid and GR were added in a final volume of 20 μL and incubated overnight at 4° C. Fluorescent polarization was measured on the PerkinElmer Envision®. Fluorescence polarization binding ranges measured using GR Fluorescence Polarization Assay: […]

IL-6 = assay: A549 Cell Assay to Measure Inflammation Markers (inhibition of IL-1β-induced IL-6); format: cell-based; settings: A549 cells, read-out: A549 cell assay
Procedure: A549 Cell Assay to Measure Inflammation Markers
A549 cells were seeded (3E4 cells/well) in 96-well assay plates in culture medium (100 μL/well., F-12 K base media, supplemented with 10% FBS and 100 μ/mL-100 μg/mL Pen-Strep.) After overnight culture in an incubator set to 37° C., 4.9% CO2, and 90% humidity, media was removed from adherent cells by aspiration and replaced with 100 μL/well Assay Medium (F-12 K base media supplemented with 5% charcoal stripped calf sera and 100 U/mL-100 μg/mL Pen-Strep.) Compounds were prepared in DMSO and serial diluted (1:3, 1:4, or 1:5) with DMSO in Dilution Plate(s) to give 10 dilution points for each compound tested. Further dilution (1:250) of compound was made into assay medium and 50 μL/well diluted drug or DMSO/media control was applied to cells. After a 1 h pre-incubation in a temperature, CO2, and humidity controlled incubator, set to 37° C., 50 μL/well of 4 ng/mL IL-1β diluted in assay media, was applied to cultures. Assay plates, with a final volume of 200 μL/well and final concentrations of 0.1% DMSO and 1 ng/mL IL-1β were returned to incubator for a four h incubation period. Next, plates were spun at 183 g (1000 rpm in Beckman/Coulter Allegra 6KR centrifuge) for 10 min. Cell-free supernatant (150 μL/well) was collected and IL-6 was measured by MSD kit, following protocol of manufacturer, and using MSD SECTOR Imager 6000 instrument. Potency of compounds to inhibit IL-6 was determined using the percent reduction of measured IL-6 in wells with compound compared to control wells without drug, and relative to (100% inhibition) positive control compound of 1 μM prednisolone. Results were represented as IC50 and Emax values. To verify that viable cell numbers were similar across plate(s), and not confounding compound IC50 data interpretation, the remaining 50 μL/well of cells and media (after removal of supernatant) were used to run Cell Titer-Glo Assay per directions of manufacturer.

IC50 [1] | IC50 (IL-6; Homo sapiens) | IC50 (IL-6) | SMILES
100 to 1000 nM | > 10000 nM | – | CC[C@]12CC[C@@](O)(C(F)(F)F)C[C@@H]1CCCc1nc3c(cnn3-c3ccc(F)cc3)cc12 (single isomer, unassigned) [Example 153]
100 to 1000 nM | – | < 100 nM | C[C@]1(O)CC[C@]2(Cc3ccccn3)c3cc4cnn(-c5ccncc5)c4cc3CCC[C@@H]2C1 [Example 31]
< 100 nM | – | < 100 nM | CCOC[C@@]1(O)CC[C@@]2(Cc3ccccn3)c3cc4cnn(-c5ccc(F)cc5)c4cc3CCC[C@H]2C1 [Example 32]
< 100 nM | – | > 10000 nM | CC[C@]12CC[C@@](O)(COC)C[C@H]1CCCc1cc3c(cnn3-c3ccc(F)cc3)cc12 [Example 34]
< 100 nM | – | < 100 nM | CC[C@@]12CC[C@](O)(COC)C[C@@H]1CCCc1cc3c(cnn3-c3ccc(F)cc3)cc12 [Example 35]
< 100 nM | – | > 10000 nM | COC[C@]1(O)CC[C@]2(Cc3ncccn3)c3cc4cnn(-c5ccc(F)cc5)c4cc3CCC[C@@H]2C1 [Example 36]
< 100 nM | – | < 100 nM | COC[C@]1(O)CC[C@]2(CC3CC3)c3cc4cnn(-c5ccc(F)cc5)c4cc3CCC[C@@H]2C1 [Example 39]
< 100 nM | – | < 100 nM | COC[C@@]1(O)CC[C@@]2(Cc3ncccn3)c3cc4cnn(-c5ccc(F)cc5)c4cc3CCC[C@H]2C1 [Example 41]
< 100 nM | – | < 100 nM | CC[C@@]12CC[C@](O)(COC)C[C@@H]1CCCc1cc3c(cnn3-c3cccnc3)cc12 [Example 44]
100 to 1000 nM | – | > 10000 nM | CC[C@]12CC[C@@](O)(COC)C[C@H]1CCCc1cc3c(cnn3-c3ccccn3)cc12 [Example 46]
< 100 nM | – | < 100 nM | CC[C@@]12CC[C@](O)(COC)C[C@@H]1CCCc1cc3c(cnn3-c3ccccn3)cc12 [Example 47]
< 100 nM | – | < 100 nM | CC[C@@]12CC[C@@](C)(O)C[C@@H]1CCCc1cc3c(cnn3-c3ccc(F)cc3)cc12 [Example 54]
< 100 nM | – | < 100 nM | C[C@]1(O)CC[C@]2(CC3CC3)c3cc4cnn(-c5ccc(F)cc5)c4cc3CCC[C@@H]2C1 [Example 58]
< 100 nM | – | < 100 nM | Cc1cc(-n2ncc3cc4c(cc32)CCC[C@H]2C[C@](C)(O)CC[C@@]42Cc2ccccn2)ccn1 [Example 60]
< 100 nM | – | < 100 nM | N#CC[C@@]1(O)CC[C@@]2(CC3CC3)c3cc4cnn(-c5ccc(F)cc5)c4cc3CCC[C@H]2C1 [Example 67]
< 100 nM | – | < 100 nM | N#CC[C@@]1(O)CC[C@@]2(Cc3ccccn3)c3cc4cnn(-c5ccncc5)c4cc3CCC[C@H]2C1 [Example 68]
< 100 nM | – | < 100 nM | N#CC[C@]1(O)CC[C@]2(Cc3ccccn3)c3cc4cnn(-c5ccncc5)c4cc3CCC[C@@H]2C1 [Example 69]
< 100 nM | < 100 nM | – | CS(=O)(=O)NC[C@@]12CC[C@](O)(C(F)(F)F)C[C@H]1CCCc1cc3c(cnn3-c3ccc(F)cc3)cc12 [Example 74, N-(((3R,4aR,12bS)-9-(4-fluorophenyl)-3-hydroxy-3-(trifluoromethyl)-1,2,3,4,4a,5,6,7,9,12b-decahydrobenzo[6,7]cyclohepta[1,2-f]indazol-12b-yl)methyl)methanesulfonamide]
< 100 nM | < 100 nM | – | OC[C@@]12CC[C@](O)(C(F)(F)F)C[C@H]1CCCc1cc3c(cnn3-c3ccc(F)cc3)cc12 [Example 78, (3R,4aR,12bS)-9-(4-fluorophenyl)-12b-(hydroxymethyl)-3-(trifluoromethyl)-1,2,3,4,4a,5,6,7,9,12b-decahydrobenzo[6,7]cyclohepta[1,2-f]indazol-3-ol]

Continued, molecule first:

SMILES | IC50 [1] | IC50 (IL-6; Homo sapiens) | IC50 (IL-6)
CC[C@@]12CC[C@](O)(C(F)(F)F)C[C@H]1CCCc1nc3c(cnn3-c3ccc(F)cc3)cc12 (single isomer, unassigned) [Example 154] | < 100 nM | < 100 nM | –
CCOC[C@]1(O)CC[C@]2(Cc3ccccn3)c3cc4cnn(-c5ccc(F)cc5)c4cc3CCC[C@@H]2C1 [Example 33] | < 100 nM | – | < 100 nM
CC[C@@]12CC[C@](O)(COC)C[C@H]1CCCc1cc3c(cnn3-c3ccc(F)cc3)cc12 [Example 37] | < 100 nM | – | < 100 nM
COC[C@@]1(O)CC[C@@]2(CC3CC3)c3cc4cnn(-c5ccc(F)cc5)c4cc3CCC[C@H]2C1 [Example 40] | < 100 nM | – | < 100 nM
CC[C@]12CC[C@@](O)(COC)C[C@H]1CCCc1cc3c(cnn3-c3cccnc3)cc12 [Example 43] | < 100 nM | – | > 10000 nM
COC[C@]1(O)CC[C@]2(Cc3ccccn3)c3cc4cnn(-c5ccncc5)c4cc3CCC[C@@H]2C1 [Example 48] | 100 to 1000 nM | – | < 100 nM
COC[C@@]1(O)CC[C@@]2(Cc3ccccn3)c3cc4cnn(-c5ccncc5)c4cc3CCC[C@H]2C1 [Example 49] | < 100 nM | – | < 100 nM
CC[C@]12CC[C@](C)(O)C[C@H]1CCCc1cc3c(cnn3-c3ccc(F)cc3)cc12 [Example 53] | < 100 nM | – | < 100 nM
C[C@@]1(O)CC[C@@]2(Cc3ncccn3)c3cc4cnn(-c5ccc(F)cc5)c4cc3CCC[C@H]2C1 [Example 55] | < 100 nM | – | < 100 nM
C[C@]1(O)CC[C@]2(Cc3ncccn3)c3cc4cnn(-c5ccc(F)cc5)c4cc3CCC[C@@H]2C1 [Example 56] | 100 to 1000 nM | – | > 10000 nM
C[C@@]1(O)CC[C@@]2(CC3CC3)c3cc4cnn(-c5ccc(F)cc5)c4cc3CCC[C@H]2C1 [Example 57] | < 100 nM | – | < 100 nM
N#CC[C@@]1(O)CC[C@@]2(Cc3ncccn3)c3cc4cnn(-c5ccc(F)cc5)c4cc3CCC[C@H]2C1 [Example 62] | < 100 nM | – | < 100 nM
N#CC[C@]1(O)CC[C@]2(Cc3ncccn3)c3cc4cnn(-c5ccc(F)cc5)c4cc3CCC[C@@H]2C1 [Example 63] | < 100 nM | – | < 100 nM
CC[C@]12CC[C@@](O)(CC#N)C[C@H]1CCCc1cc3c(cnn3-c3ccc(F)cc3)cc12 [Example 64] | < 100 nM | – | < 100 nM
CC[C@@]12CC[C@](O)(CC#N)C[C@@H]1CCCc1cc3c(cnn3-c3ccc(F)cc3)cc12 [Example 65] | < 100 nM | – | < 100 nM
N#CC[C@]1(O)CC[C@]2(CC3CC3)c3cc4cnn(-c5ccc(F)cc5)c4cc3CCC[C@@H]2C1 [Example 66] | < 100 nM | – | < 100 nM
O=S1(=O)CCCN1C[C@@]12CC[C@](O)(C(F)(F)F)C[C@H]1CCCc1cc3c(cnn3-c3ccc(F)cc3)cc12 [Example 75, 2-(((3R,4aR,12bS)-9-(4-fluorophenyl)-3-hydroxy-3-(trifluoromethyl)-1,2,3,4,4a,5,6,7,9,12b-decahydrobenzo[6,7]cyclohepta[1,2-f]indazol-12b-yl)methyl)isothiazolidine 1,1-dioxide] | < 100 nM | < 100 nM | –
OC[C@]12CC[C@@](O)(C(F)(F)F)C[C@@H]1CCCc1cc3c(cnn3-c3ccc(F)cc3)cc12 [Example 79] | < 100 nM | – | 100 to 1000 nM
